Experimental data reported in ChEMBL document CHEMBL1208724, “A new group of oxime carbamates as reversible inhibitors of fatty acid amide hydrolase” (Bioorg Med Chem Lett, 2010).

Target: T1, Fatty-acid amide hydrolase 1 (Mus musculus, UniProt O08914)
T1 sequence (O08914 whole entry): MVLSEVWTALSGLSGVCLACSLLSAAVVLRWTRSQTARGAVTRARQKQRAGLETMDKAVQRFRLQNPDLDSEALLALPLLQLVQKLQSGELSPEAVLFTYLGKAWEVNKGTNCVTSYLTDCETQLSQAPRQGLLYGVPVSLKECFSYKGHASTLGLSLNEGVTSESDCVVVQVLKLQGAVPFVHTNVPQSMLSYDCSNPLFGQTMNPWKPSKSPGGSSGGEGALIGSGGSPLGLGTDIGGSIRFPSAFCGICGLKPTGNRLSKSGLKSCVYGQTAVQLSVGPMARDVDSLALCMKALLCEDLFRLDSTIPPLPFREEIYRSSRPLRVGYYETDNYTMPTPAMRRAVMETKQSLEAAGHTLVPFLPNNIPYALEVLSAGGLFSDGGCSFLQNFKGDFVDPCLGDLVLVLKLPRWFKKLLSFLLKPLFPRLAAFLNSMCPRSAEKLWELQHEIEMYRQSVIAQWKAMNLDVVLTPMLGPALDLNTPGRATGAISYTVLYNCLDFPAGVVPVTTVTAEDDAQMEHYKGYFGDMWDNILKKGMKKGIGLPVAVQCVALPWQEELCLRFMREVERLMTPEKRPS
Experiment: Inhibition of mouse brain FAAH assessed as conversion of [3H-ethanolamine]AEA to [3H]ethanolamine by scintillation counting

SMILES | IC50
C/C(=N\OC(=O)Nc1cccc2ccccc12)c1ccc(-c2cccs2)s1 | > 1000 nM
C/C(=N\OC(=O)Nc1cccc2ccccc12)c1cccc(-c2ccccc2)c1 | 10 nM
C/C(=N\OC(=O)N(c1ccccc1)c1ccccc1)c1cccc(-c2ccccc2)c1 | > 50000 nM

Now from value to compound:

IC50 | SMILES
28 nM | COc1ccc(NC(=O)O/N=C(\C)c2cccc(-c3ccccc3)c2)cc1
17 nM | C/C(=N\OC(=O)Nc1ccc(F)cc1)c1cccc(-c2ccccc2)c1
